Read-outs that look alike come from different tables or passages of the source.
Assays:
[1] = Pharmacokinetics in Sprague-Dawley rats; assay type: in vivo; details: rat, plasma; for bioavailability / Cmax / Tmax / half-life: po; for bioavailability: 1 mg/kg; for Cmax / Tmax / half-life: p.o. 1 mg/kg
Description: Male (n=12, 2 groups of 6) and female (n=12, 2 groups of 6) Sprague-Dawley rats (275–300 g) with indwelling jugular vein cannulae were fasted overnight prior to dosing. Animals were dosed either intravenously (i.v.) via bolus injection through a percutaneous catheter into a lateral tail vein or orally (p.o.) via gavage. Olinciguat was formulated in 60% polyethylene glycol (PEG) 400/40% water at 0.3 mg/ml (0.3 mg/kg) for i.v. dosing, and at 1 mg/ml (1 mg/kg) in 100% PEG 400 for p.o. dosing. Chow was returned to animals 4 h postdose.
Blood from i.v. and p.o. dosed rats was collected at 16 timepoints (2 groups of rats, 8 timepoints per group) over 24 h. Samples were collected into potassium ethylenediamine tetraacetic acid (K2EDTA) tubes, centrifuged (3,500 rpm for 10 min) to yield plasma. In the pharmacokinetic studies and in all in vivo studies, olinciguat plasma concentrations were determined by LC-MS/MS. Pharmacokinetic (PK) parameters were calculated by noncompartmental analysis using sparse sampling in Phoenix® WinNonLin® v.6.3 (Certara, Princeton, NJ).

[2] = Mass balance/excretion of [14C]-olinciguat in rats; assay type: in vivo, rat; details: male Sprague-Dawley rats, single oral dose 3 mg/kg; for equivalents excreted in the feces, percent of administered dose: 3 mg/kg
Description: [^14C]-olinciguat, uniformly labeled with [^14C] in the fluorobenzyl ring and having a specific activity of 110 mCi/mmol, was synthesized at American Radiolabeled Chemicals, Inc. (St. Louis, MO). The radiochemical purity was determined to be >99%. Four male Sprague-Dawley rats (approximately 8 weeks old) received a single p.o. dose of 3 mg/kg [^14C]-olinciguat (specific activity 26.6 µCi/mg) in PEG 400:water 60:40 v/v (dosing volume ≤5 ml/kg). Using a single metabolism cage (Nalgene) for each rat, urine and feces were collected for 7 days at 24-h intervals, and cages were rinsed daily. Food was available ad libitum throughout the study, except for the overnight fasting period (16–18 h) before and 4 h after olinciguat administration. Deionized water was available ad libitum. After 7 days, tissues were collected. Urine, feces, liver, kidneys, and cage washes were analyzed to determine material balance.

[3] = molecular target: T1, sGC (Homo sapiens, UniProt Q02108+Q02153); test: sGC whole cell assay (HEK-293, cGMP production); assay type: cell-based
T1 construct: HEK-293 cells endogenously expressing sGC were treated with olinciguat; host or cells: HEK-293
T1 sequence (Q02153 1-619): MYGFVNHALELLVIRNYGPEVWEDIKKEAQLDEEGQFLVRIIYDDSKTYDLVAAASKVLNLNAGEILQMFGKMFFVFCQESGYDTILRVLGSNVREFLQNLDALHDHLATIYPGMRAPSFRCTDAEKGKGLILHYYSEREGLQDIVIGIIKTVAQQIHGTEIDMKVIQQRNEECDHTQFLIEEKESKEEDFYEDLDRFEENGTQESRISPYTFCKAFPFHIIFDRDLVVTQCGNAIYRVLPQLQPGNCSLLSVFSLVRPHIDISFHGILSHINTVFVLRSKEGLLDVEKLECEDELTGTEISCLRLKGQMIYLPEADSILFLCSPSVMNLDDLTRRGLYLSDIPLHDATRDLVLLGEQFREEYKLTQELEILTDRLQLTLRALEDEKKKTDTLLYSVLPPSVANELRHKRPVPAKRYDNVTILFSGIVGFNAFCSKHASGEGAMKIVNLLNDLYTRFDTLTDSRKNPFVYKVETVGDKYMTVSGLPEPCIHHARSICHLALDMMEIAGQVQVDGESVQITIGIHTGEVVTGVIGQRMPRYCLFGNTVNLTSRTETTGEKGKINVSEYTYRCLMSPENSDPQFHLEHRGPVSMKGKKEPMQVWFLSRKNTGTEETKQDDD
T1 sequence (Q02108 1-690): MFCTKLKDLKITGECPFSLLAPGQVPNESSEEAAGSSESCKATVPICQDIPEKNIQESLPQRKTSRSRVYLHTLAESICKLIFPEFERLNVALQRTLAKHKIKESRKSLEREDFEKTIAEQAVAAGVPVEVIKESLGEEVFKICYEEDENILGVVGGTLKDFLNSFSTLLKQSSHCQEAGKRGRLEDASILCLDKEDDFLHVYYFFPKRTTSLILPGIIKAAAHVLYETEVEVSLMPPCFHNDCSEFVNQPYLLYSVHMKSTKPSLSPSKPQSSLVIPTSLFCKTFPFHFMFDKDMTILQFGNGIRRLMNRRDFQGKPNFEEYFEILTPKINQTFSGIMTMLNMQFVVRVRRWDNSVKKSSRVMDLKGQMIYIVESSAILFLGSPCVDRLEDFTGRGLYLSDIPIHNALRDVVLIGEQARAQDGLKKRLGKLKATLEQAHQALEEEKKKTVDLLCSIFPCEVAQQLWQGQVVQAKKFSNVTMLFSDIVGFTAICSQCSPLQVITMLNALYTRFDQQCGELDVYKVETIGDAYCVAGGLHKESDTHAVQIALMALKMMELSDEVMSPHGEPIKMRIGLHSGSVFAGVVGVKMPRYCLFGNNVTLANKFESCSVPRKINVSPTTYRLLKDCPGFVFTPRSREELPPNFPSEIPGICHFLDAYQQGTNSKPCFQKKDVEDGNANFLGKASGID
Description: The human embryonic kidney (HEK)-293 whole cell assay was performed as described ([Tobin et al., 2018]). Briefly, HEK-293 cells (ATCC, Manassas, VA, #CRL-1573) were maintained in Dulbecco's modified Eagle's medium (DMEM) containing serum and antibiotics. Assays were performed in 384-well plates at 37°C by preincubating with 0.5 mM 3-isobutyl-1-methylxanthine (IBMX) in Hanks' Balanced Salt Solution (HBSS) containing calcium and magnesium for 15 min, then adding olinciguat with or without the NO donor diethylenetriamine NONOate (DETA), followed by a 20-min incubation. Cells were lysed with ice-cold 10% acetic acid then centrifuged, and cGMP levels in supernatants were determined by reverse-phase liquid chromatography with tandem mass spectrometry (LC-MS/MS). Concentration-response data were fit using a four-parameter fit (log(agonist) vs response – variable slope) using GraphPad Prism v.7.

Vd ([1]; both sexes, Sprague-Dawley, intravenous, 0.3 mg/kg, male and female rats, mean, read-out: mean pharmacokinetic volume of distribution): 1 L/kg
bioavailability ([1]; both sexes, Sprague-Dawley, rats, sexes not separated (discussion), read-out: oral bioavailability (rats, overall)): 40%
clearance ([1]; iv, female Sprague Dawley rats, i.v. 0.3 mg/kg): 5.6 mL/min/kg
Vd ([1]; iv, female Sprague Dawley rats, i.v. 0.3 mg/kg, read-out: Vss): 0.9 L/kg
clearance ([1]; iv, male Sprague Dawley rats, i.v. 0.3 mg/kg): 11.3 mL/min/kg
Vd ([1]; iv, male Sprague Dawley rats, i.v. 0.3 mg/kg, read-out: Vss): 1.1 L/kg
bioavailability ([1]; female Sprague Dawley rats, read-out: Oral bioavailability): 45%
bioavailability ([1]; male Sprague Dawley rats, read-out: Oral bioavailability): 36%
Cmax ([1]; female Sprague Dawley rats): 198 ng/mL
Tmax ([1]; female Sprague Dawley rats): 3 h
half-life ([1]; female Sprague Dawley rats): 3.9 h
Cmax ([1]; male Sprague Dawley rats): 96.4 ng/mL
Tmax ([1]; male Sprague Dawley rats): 1 h
half-life ([1]; male Sprague Dawley rats): 3.5 h
administered dose radioactivity recovered in feces and urine within the first 48 h [2]: 95%
equivalents excreted in the urine, percent of administered dose ([2]; over 7 days): 5.7%
equivalents excreted in the feces, percent of administered dose ([2]; over 7 days): > 95%
equivalents excreted in the feces, percent of administered dose ([2]; over 7 days, listed as [^14C]-olinciguat): 95.3%
EC50 ([3]; HEK-293 cells endogenously expressing sGC, in the presence of 10 µM DETA, geometric mean of 14 experiments, 95% CI 42.7 to 105 nM, read-out: EC50, cGMP production): 73.8 nM
EC50 ([3]; Table 2 summary, 10 µM DETA, read-out: Human cellular sGC assay (HEK-293) EC50, olinciguat concentration (range = 95% CI)): 42.7 to 105 nM
Compound: NC(=O)[C@](O)(CNc1nc(-c2cc(-c3ccon3)n(Cc3ccccc3F)n2)ncc1F)C(F)(F)F [olinciguat, (R)-3,3,3-trifluoro-2-(((5-fluoro-2-(1-(2-fluorobenzyl)-5-(isoxazol-3-yl)-1H-pyrazol-3-yl)pyrimidin-4-yl)amino)methyl)-2-hydroxypropanamide]

Reference: article PMC7156612, “Olinciguat, an Oral sGC Stimulator, Exhibits Diverse Pharmacology Across Preclinical Models of Cardiovascular, Metabolic, Renal, and Inflammatory Disease” (Frontiers in Pharmacology, 2020)
